The experiment concerns L1210 leukemia ip in BDF1 mice, survival T/C. The experiment can be described thus: NCI In Vivo Anticancer Drug Screen. Data for tumor model L1210 Leukemia (intraperitoneal) in B6D2F1 (BDF1) mice. As to conditions: endpoint: mean survival time, higher = longer survival. The essentials: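 Read-out is survival time, reported as the treated-group measurement over the vehicle-control measurement.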

[1] abbreviates: dose: 100.0 mg/kg/injection, schedule: Q04DX003 (ip), vehicle: Klucel (hydroxypropylcellulose) (HPC).
Where [2] appears, read: dose: 200.0 mg/kg/injection, schedule: Q04DX003 (ip), vehicle: Klucel (hydroxypropylcellulose) (HPC).
[3] abbreviates: dose: 400.0 mg/kg/injection, schedule: Q04DX003 (ip), vehicle: Klucel (hydroxypropylcellulose) (HPC).
Setting [4] is: dose: 100.0 mg/kg/injection, schedule: Q01DX009 (ip), vehicle: Klucel (hydroxypropylcellulose) (HPC).
Setting [5] is: dose: 200.0 mg/kg/injection, schedule: Q01DX009 (ip), vehicle: Klucel (hydroxypropylcellulose) (HPC).
The mark [6] stands for this setting: dose: 400.0 mg/kg/injection, schedule: Q01DX009 (ip), vehicle: Klucel (hydroxypropylcellulose) (HPC).
[7] abbreviates: dose: 50.0 mg/kg/injection, schedule: Q01DX001 (ip), vehicle: saline.
Where [8] appears, read: dose: 100.0 mg/kg/injection, schedule: Q01DX009 (ip), vehicle: saline with Tween-80.
Setting [9] is: dose: 200.0 mg/kg/injection, schedule: Q01DX009 (ip), vehicle: saline with Tween-80.
[10] abbreviates: dose: 400.0 mg/kg/injection, schedule: Q01DX009 (ip), vehicle: saline with Tween-80.
Where [11] appears, read: dose: 100.0 mg/kg/injection, schedule: Q04DX003 (ip), vehicle: saline with Tween-80.
Where [12] appears, read: dose: 100.0 mg/kg/injection, schedule: Q04DX003 (ip), vehicle: saline.
[13] abbreviates: dose: 200.0 mg/kg/injection, schedule: Q04DX003 (ip), vehicle: saline with Tween-80.

The structures appear in SMILES notation. Values joined by “and” are separate entries in the source; they are usually repeats but may differ in a detail not shown here. Equal entries are not always repeated. Inconclusive results and toxic doses are left out.

As for `CNC(=S)N/N=C/c1ccc2c(c1)CCC2`, the T/C is, setting by setting: under setting [1], 100 % of control; under setting [2], 100 % of control; under setting [3], 91 % of control.
Regarding `Cc1ccc(C)c(NS(=O)(=O)c2ccc(Cl)c([N+](=O)[O-])c2)c1`, the T/C under setting [4] is 110 % of control, the T/C under setting [5] was 105 % of control and the T/C under setting [6] is 107 % of control.
On to `C1OC1CN1CCC(C2CCN(CC3CO3)CC2)CC1` (configuration not stated), for which the T/C is, setting by setting: (dose: 0.61 mg/kg/injection, schedule: Q01DX009 (ip), vehicle: saline) 114 % of control; (dose: 2.1 mg/kg/injection, schedule: Q01DX009 (ip), vehicle: saline) 156 % of control; (dose: 2.9 mg/kg/injection, schedule: Q01DX001 (ip), vehicle: saline) 121 % of control; (dose: 3.5 mg/kg/injection, schedule: Q01DX009 (ip), vehicle: saline) 120 % of control; (dose: 4.3 mg/kg/injection, schedule: Q01DX001 (ip), vehicle: saline) 115 % of control; (dose: 4.4 mg/kg/injection, schedule: Q01DX001 (ip), vehicle: saline) 159 % of control. Besides, the T/C was 122 % of control (dose: 6.6 mg/kg/injection, schedule: Q01DX001 (ip), vehicle: saline); 160 % of control (dose: 15.0 mg/kg/injection, schedule: Q01DX001 (ip), vehicle: saline); 150 % of control and 152 % of control (dose: 15.0 mg/kg/injection, schedule: Q01DX009 (ip), vehicle: saline); 164 % of control under setting [7]; 156 % of control (dose: 60.0 mg/kg/injection, schedule: Q01DX001 (ip), vehicle: saline); 91 % of control (dose: 60.0 mg/kg/injection, schedule: Q01DX009 (ip), vehicle: saline).
`O=S(=O)(c1ccccc1)N1CCCCC1`: the T/C reads like this: under setting [1], 100 % of control; under setting [2], 97 % of control; under setting [3], 100 % of control.
Regarding `COc1ccc(NC(=S)N(C)C)cc1`, the T/C runs as follows: under setting [8], 98 % of control; under setting [9], 110 % of control; under setting [10], 98 % of control.
Take `CCCCCCC(=O)CCCC(C)CCCC(C)C` (configuration not stated): the T/C was 91 % of control under setting [4]; 93 % of control under setting [1]; 97 % of control under setting [5]; 95 % of control under setting [2]; 98 % of control under setting [6]; 88 % of control under setting [3].
Consider `NC(=O)CN1C(=O)C2C3CCC(O3)C2C1=O` (configuration not stated), for which the T/C reads like this: (dose: 25.0 mg/kg/injection, schedule: Q04DX003 (ip), vehicle: saline with Tween-80) 89 % of control; (dose: 50.0 mg/kg/injection, schedule: Q04DX003 (ip), vehicle: saline with Tween-80) 89 % of control; under setting [11], 96 % of control; under setting [12], 107 % of control; (dose: 400.0 mg/kg/injection, schedule: Q04DX003 (ip), vehicle: saline) 95 % of control.
Regarding `O=C(O)c1cc(C(=O)O)cc([N+](=O)[O-])c1`, the T/C is 93 % of control (dose: 50.0 mg/kg/injection, schedule: Q01DX009 (ip), vehicle: saline with Tween-80); 91 % of control under setting [8]; 95 % of control under setting [11]; 95 % of control under setting [13].
As to `CSc1ncc(CO)c(N2CC2)n1`, for the setting “dose: 100.0 mg/kg/injection, schedule: Q01DX Z (ip), vehicle: methylcellulose (MC)”, the T/C was 87 % of control.
As for `COc1ccc(C(=O)NC[n+]2ccccc2)cc1`, the T/C is, setting by setting: (dose: 25.0 mg/kg/injection, schedule: Q01DX009 (ip), vehicle: saline) 93 % of control; (dose: 25.0 mg/kg/injection, schedule: Q04DX003 (ip), vehicle: saline) 86 % of control; (dose: 50.0 mg/kg/injection, schedule: Q01DX009 (ip), vehicle: saline) 98 % of control; (dose: 50.0 mg/kg/injection, schedule: Q04DX003 (ip), vehicle: saline) 93 % of control; under setting [12], 99 % of control.
On to `Cc1ccc2nc(CCl)[nH]c2c1`, for which the T/C is, setting by setting: under setting [7], 119 % of control; (dose: 100.0 mg/kg/injection, schedule: Q01DX001 (ip), vehicle: saline) 113 % of control; (dose: 200.0 mg/kg/injection, schedule: Q01DX001 (ip), vehicle: saline) 107 % of control.
In the case of `C/C(=N\Nc1ccccc1)C(C)C`, the T/C was 118 % of control (dose: 75.0 mg/kg/injection, schedule: Q04DX003 (ip), vehicle: Klucel (hydroxypropylcellulose) (HPC)); 94 % of control (dose: 150.0 mg/kg/injection, schedule: Q04DX003 (ip), vehicle: Klucel (hydroxypropylcellulose) (HPC)); 96 % of control (dose: 300.0 mg/kg/injection, schedule: Q04DX003 (ip), vehicle: Klucel (hydroxypropylcellulose) (HPC)).
As to `O=C1O/C(=C\c2ccccc2)C(O)=C1c1ccccc1`, the T/C (dose: 100.0 mg/kg/injection, schedule: Q01DX001 (ip), vehicle: saline with Tween-80) was 100 % of control.
For the compound `O=C1CC(Sc2ccccc2)C(=O)N1c1ccccc1` (configuration not stated), the T/C is, setting by setting: under setting [4], 104 % of control; under setting [5], 100 % of control; under setting [6], 107 % of control.
Turning to `C=C(C(N)=O)c1cc(Cl)ccc1Cl`, the T/C under setting [8] is 96 % of control; the T/C under setting [11] was 103 % of control; the T/C under setting [9] is 92 % of control; the T/C under setting [13] is 101 % of control; the T/C under setting [10] was 92 % of control; the T/C (dose: 400.0 mg/kg/injection, schedule: Q04DX003 (ip), vehicle: saline with Tween-80) is 94 % of control.
As to `COC[P+](c1ccccc1)(c1ccccc1)c1ccccc1`, the T/C is 96 % of control (dose: 1.25 mg/kg/injection, schedule: Q01DX001 (ip), vehicle: Klucel (hydroxypropylcellulose) (HPC)); 90 % of control (dose: 1.25 mg/kg/injection, schedule: Q01DX009 (ip), vehicle: Klucel (hydroxypropylcellulose) (HPC)); 105 % of control (dose: 2.5 mg/kg/injection, schedule: Q01DX001 (ip), vehicle: Klucel (hydroxypropylcellulose) (HPC)); 92 % of control (dose: 2.5 mg/kg/injection, schedule: Q01DX009 (ip), vehicle: Klucel (hydroxypropylcellulose) (HPC)); 97 % of control (dose: 5.0 mg/kg/injection, schedule: Q01DX001 (ip), vehicle: Klucel (hydroxypropylcellulose) (HPC)); 96 % of control (dose: 5.0 mg/kg/injection, schedule: Q01DX009 (ip), vehicle: Klucel (hydroxypropylcellulose) (HPC)). In addition, the T/C (dose: 10.0 mg/kg/injection, schedule: Q01DX001 (ip), vehicle: Klucel (hydroxypropylcellulose) (HPC)) is 100 % of control and the T/C (dose: 10.0 mg/kg/injection, schedule: Q01DX009 (ip), vehicle: Klucel (hydroxypropylcellulose) (HPC)) was 113 % of control.
On to `CCCCCCCCCCNc1ccc(NCCCCCCCCCC)cc1`, for which the T/C was 108 % of control under setting [4]; 95 % of control under setting [1]; 109 % of control under setting [5]; 102 % of control under setting [2]; 90 % of control under setting [6]; 105 % of control under setting [3].
For the compound `CC/C(C[n+]1ccccc1)=N\Nc1ccc([N+](=O)[O-])cc1[N+](=O)[O-]`, the T/C was 102 % of control (dose: 5.0 mg/kg/injection, schedule: Q01DX001 (ip), vehicle: acetone); 100 % of control (dose: 10.0 mg/kg/injection, schedule: Q01DX001 (ip), vehicle: acetone); 103 % of control (dose: 20.0 mg/kg/injection, schedule: Q01DX001 (ip), vehicle: acetone); 103 % of control (dose: 20.0 mg/kg/injection, schedule: Q04DX003 (ip), vehicle: saline); 108 % of control (dose: 40.0 mg/kg/injection, schedule: Q01DX001 (ip), vehicle: acetone); 95 % of control (dose: 40.0 mg/kg/injection, schedule: Q04DX003 (ip), vehicle: saline). In addition, the T/C (dose: 80.0 mg/kg/injection, schedule: Q01DX001 (ip), vehicle: acetone) was 100 % of control.
Turning to `O=NN(CCCl)C(=O)Nc1ccccc1C(=O)O`, the T/C runs as follows: (dose: 6.0 mg/kg/injection, schedule: Q01DX001 (ip), vehicle: carboxymethylcellulose (CMC)) 121 % of control; (dose: 9.0 mg/kg/injection, schedule: Q01DX001 (ip), vehicle: carboxymethylcellulose (CMC)) 156 % of control.
As for `O=C(Nc1ccc(CCO)cc1)Nc1ccccc1C(F)(F)F`, the T/C was 97 % of control under setting [8], 90 % of control under setting [9] and 92 % of control under setting [10].

Values taken from PubChem BioAssay AID248 (DTP/NCI, 2004).
